US8791148B2, “Substituted benzimidazolone derivatives, medicaments comprising them and their use” (AbbVie Deutschland GmbH & Co. KG, priority 2006, dated 2014)

molecular target: T1, human vasopressin V1b receptor (Homo sapiens, UniProt P47901); assay: Vasopressin V1b receptor binding assay; conditions: membranes from CHO-K1 cells with stably expressed human V1b receptors; displacement of 1.5 nM 3H-AVP; read-out: V1b receptor affinity (affinity constant Ki)
T1 construct: expressed in transfected cells; host or cells: CHO-K1 (cell line hV1b-3H2_CHO), membrane preparation
T1 sequence (P47901 1-424): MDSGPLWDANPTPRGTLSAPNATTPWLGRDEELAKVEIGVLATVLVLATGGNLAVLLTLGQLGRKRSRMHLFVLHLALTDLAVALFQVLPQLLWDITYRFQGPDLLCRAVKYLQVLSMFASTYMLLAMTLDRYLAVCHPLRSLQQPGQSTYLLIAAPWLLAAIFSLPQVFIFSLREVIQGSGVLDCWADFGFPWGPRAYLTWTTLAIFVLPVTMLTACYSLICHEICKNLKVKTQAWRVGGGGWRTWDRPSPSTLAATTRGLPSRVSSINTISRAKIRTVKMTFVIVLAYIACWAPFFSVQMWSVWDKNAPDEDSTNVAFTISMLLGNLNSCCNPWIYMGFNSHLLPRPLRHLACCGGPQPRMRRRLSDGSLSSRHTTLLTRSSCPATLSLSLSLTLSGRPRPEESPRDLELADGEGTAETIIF
Summary of the method: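 Ki values come from nonlinear regression of triplicate scintillation counts after filtration. Test compound (2% DMSO in the mixture) and radioligand were incubated 60 min at room temperature with human V1b membranes in pH 7.4 Tris buffer with 10 mM MgCl2 and 0.1% BSA. Nonspecific binding was set with 1 uM AVP.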

Row | Ki [nM] | Structure (SMILES)
1 | 100 to 500 | CCCN1CCN(C2CN(C(=O)C(c3ccccc3)n3c(=O)n(S(=O)(=O)c4ccc(OC)cc4)c4ccc(Cl)cc43)C2)CC1 (centres unmarked) [Example 154, 5-Chloro-1-(4-methoxybenzenesulfonyl)-3-{2-oxo-1-phenyl-2-[3-(4-propylpiperazin-1-yl)azetidin-1-yl]ethyl}-1,3-dihydrobenzimidazol-2-one]
2 | < 100 | CCCN1CCN([C@@H]2CCN(C(=O)C(c3ccccc3)n3c(=O)n(S(=O)(=O)c4ccc(OC)cc4)c4ccc(Cl)cc43)C2)CC1 (stereo partly drawn) [Example 157, 5-Chloro-1-(4-methoxybenzenesulfonyl)-3-{2-oxo-1-phenyl-2-[(R)-3-(4-propylpiperazin-1-yl)pyrrolidin-1-yl]ethyl}-1,3-dihydrobenzimidazol-2-one]
3 | < 100 | CCCN1CCN([C@H]2CCN(C(=O)C(c3ccccc3)n3c(=O)n(S(=O)(=O)c4ccc(OC)cc4)c4ccc(Cl)cc43)C2)CC1 (stereo partly drawn) [Example 158, 5-Chloro-1-(4-methoxybenzenesulfonyl)-3-{2-oxo-1-phenyl-2-[(S)-3-(4-propylpiperazin-1-yl)pyrrolidin-1-yl]ethyl}-1,3-dihydrobenzimidazol-2-one]
4 | < 100 | COc1ccc(S(=O)(=O)n2c(=O)n(C(C(=O)N3CC[C@@H](N4CCN(C)CC4)C3)c3ccccc3)c3cc(Cl)ccc32)cc1 (stereo partly drawn) [Example 159, 5-Chloro-1-(4-methoxybenzenesulfonyl)-3-{2-[(R)-3-(4-methylpiperazin-1-yl)pyrrolidin-1-yl]-2-oxo-1-phenylethyl}-1,3-dihydrobenzimidazol-2-one]
5 | 100 to 500 | COc1ccc(S(=O)(=O)n2c(=O)n(C(C(=O)N3CC[C@@H](N4CCN(C)CC4)C3)c3ccccc3)c3cc(C#N)ccc32)cc1 (stereo partly drawn) [Example 162, 1-(4-Methoxybenzenesulfonyl)-3-{2-[(R)-3-(4-methylpiperazin-1-yl)-pyrrolidin-1-yl]-2-oxo-1-phenylethyl}-2-oxo-2,3-dihydro-1H-benzimidazole-5-carbonitrile]
6 | 100 to 500 | CCCN1CCN([C@@H]2CCN(C(=O)C(c3ccccc3)n3c(=O)n(S(=O)(=O)c4ccc(OC)cc4)c4ccc(C#N)cc43)C2)CC1 (stereo partly drawn) [Example 163, 1-(4-Methoxybenzenesulfonyl)-2-oxo-3-{2-oxo-1-phenyl-2-[(R)-3-(4-propylpiperazin-1-yl)pyrrolidin-1-yl]ethyl}-2,3-dihydro-1H-benzimidazole-5-carbonitrile]
7 | 500 to 10000 | COc1ccc(S(=O)(=O)n2c(=O)n(C(C(=O)N3CCN(C4CCCNC4)CC3)c3ccccc3)c3cc(Cl)ccc32)cc1 (centres unmarked) [Example 165, 5-Chloro-1-(4-methoxybenzenesulfonyl)-3-[2-oxo-1-phenyl-2-(4-piperidin-3-ylpiperazin-1-yl)ethyl]-1,3-dihydrobenzimidazol-2-one]
8 | < 100 | COc1ccc(S(=O)(=O)n2c(=O)n(C(C(=O)N3CCCC(N)C3)c3ccccc3)c3cc(Cl)ccc32)cc1 (centres unmarked) [Example 167, 3-[2-(3-Aminopiperidin-1-yl)-2-oxo-1-phenylethyl]-5-chloro-1-(4-methoxybenzenesulfonyl)-1,3-dihydrobenzimidazol-2-one]
9 | 100 to 500 | COc1ccc(S(=O)(=O)n2c(=O)n(C(C(=O)N3CC[C@H](N)C3)c3ccccc3)c3cc(Cl)ccc32)cc1 (stereo partly drawn) [Example 168, 3-[2-((S)-3-Aminopyrrolidin-1-yl)-2-oxo-1-phenylethyl]-5-chloro-1-(4-methoxybenzenesulfonyl)-1,3-dihydrobenzimidazol-2-one]
10 | 500 to 10000 | COc1ccc(S(=O)(=O)n2c(=O)n(C(C(=O)N3CC[C@H](N)C3)c3ccccc3)c3cc(C#N)ccc32)cc1 (stereo partly drawn) [Example 171, 3-[2-((S)-3-Aminopyrrolidin-1-yl)-2-oxo-1-phenylethyl]-1-(4-methoxybenzenesulfonyl)-2-oxo-2,3-dihydro-1H-benzimidazole-5-carbonitrile]

More lines, now with the values behind:

Row | Structure (SMILES) | Ki [nM]
11 | COc1ccc(S(=O)(=O)n2c(=O)n(C(C(=O)N3CC[C@H](N4CCN(C)CC4)C3)c3ccccc3)c3cc(Cl)ccc32)cc1 (stereo partly drawn) [Example 153, 5-Chloro-1-(4-methoxybenzenesulfonyl)-3-{2-[(S)-3-(4-methylpiperazin-1-yl)pyrrolidin-1-yl]-2-oxo-1-phenylethyl}-1,3-dihydrobenzimidazol-2-one] | < 100
12 | CCCN1CCN(C2CCCN(C(=O)C(c3ccccc3)n3c(=O)n(S(=O)(=O)c4ccc(OC)cc4)c4ccc(Cl)cc43)C2)CC1 (centres unmarked) [Example 155, 5-Chloro-1-(4-methoxybenzenesulfonyl)-3-{2-oxo-1-phenyl-2-[3-(4-propylpiperazin-1-yl)piperidin-1-yl]ethyl}-1,3-dihydrobenzimidazol-2-one] | < 100
13 | COc1ccc(S(=O)(=O)n2c(=O)n(C(C(=O)N3CCCC(N4CCN(C)CC4)C3)c3ccccc3)c3cc(Cl)ccc32)cc1 (centres unmarked) [Example 156, 5-Chloro-1-(4-methoxybenzenesulfonyl)-3-{2-[3-(4-methylpiperazin-1-yl)piperidin-1-yl]-2-oxo-1-phenylethyl}-1,3-dihydrobenzimidazol-2-one] | < 100
14 | COc1ccc(S(=O)(=O)n2c(=O)n(C(C(=O)N3CC[C@H](N4CCN(C)CC4)C3)c3ccccc3)c3cc(C#N)ccc32)cc1 (stereo partly drawn) [Example 160, 1-(4-Methoxybenzenesulfonyl)-3-{2-[(S)-3-(4-methylpiperazin-1-yl)-pyrrolidin-1-yl]-2-oxo-1-phenylethyl}-2-oxo-2,3-dihydro-1H-benzimidazole-5-carbonitrile] | < 100
15 | CCCN1CCN([C@H]2CCN(C(=O)C(c3ccccc3)n3c(=O)n(S(=O)(=O)c4ccc(OC)cc4)c4ccc(C#N)cc43)C2)CC1 (stereo partly drawn) [Example 161, 1-(4-Methoxybenzenesulfonyl)-2-oxo-3-{2-oxo-1-phenyl-2-[(S)-3-(4-propylpiperazin-1-yl)pyrrolidin-1-yl]ethyl}-2,3-dihydro-1H-benzimidazole-5-carbonitrile] | < 100
16 | COc1ccc(S(=O)(=O)n2c(=O)n(C(C(=O)N3CCC(N)C3)c3ccccc3)c3cc(Cl)ccc32)cc1 (centres unmarked) [Example 166, 3-[2-(3-Aminopyrrolidin-1-yl)-2-oxo-1-phenylethyl]-5-chloro-1-(4-methoxybenzenesulfonyl)-1,3-dihydrobenzimidazol-2-one] | 100 to 500
17 | COc1ccc(S(=O)(=O)n2c(=O)n(C(C(=O)N3CC[C@@H](N)C3)c3ccccc3)c3cc(Cl)ccc32)cc1 (stereo partly drawn) [Example 169, 3-[2-((R)-3-Aminopyrrolidin-1-yl)-2-oxo-1-phenylethyl]-5-chloro-1-(4-methoxybenzenesulfonyl)-1,3-dihydrobenzimidazol-2-one] | 500 to 10000
18 | COc1ccc(S(=O)(=O)n2c(=O)n(C(C(=O)N3CCCC(N)C3)c3ccccc3)c3cc(C#N)ccc32)cc1 (centres unmarked) [Example 170, 3-[2-(3-Aminopiperidin-1-yl)-2-oxo-1-phenylethyl]-1-(4-methoxybenzenesulfonyl)-2-oxo-2,3-dihydro-1H-benzimidazole-5-carbonitrile] | 500 to 10000
19 | COc1ccc(S(=O)(=O)n2c(=O)n(C(C(=O)N3CC[C@@H](N)C3)c3ccccc3)c3cc(C#N)ccc32)cc1 (stereo partly drawn) [Example 172, 3-[2-((R)-3-Aminopyrrolidin-1-yl)-2-oxo-1-phenylethyl]-1-(4-methoxybenzenesulfonyl)-2-oxo-2,3-dihydro-1H-benzimidazole-5-carbonitrile] | 500 to 10000
20 | COc1ccc(S(=O)(=O)n2c(=O)n(C(C(=O)N[C@H]3CCNC3)c3ccccc3)c3cc(Cl)ccc32)cc1 (stereo partly drawn) [Example 173, 2-[6-Chloro-3-(4-methoxybenzenesulfonyl)-2-oxo-2,3-dihydrobenzimidazol-1-yl]-2-phenyl-N—(S)-pyrrolidin-3-ylacetamide] | 500 to 10000
